The results in this text go back to paper PMC4703063, “Dual functionality of O-GlcNAc transferase is required for Drosophila development” (Open Biology, 2015).

The target in series [1] is T1, Δ1–312 hOGT (Homo sapiens, UniProt O15294).
T1 construct: gene OGT; N-terminally truncated, residues 1-312 removed (printed once as Δ1-313 beside the Ki); part of TPRs plus catalytic domain; recombinant
T1 sequence (O15294 323-1041): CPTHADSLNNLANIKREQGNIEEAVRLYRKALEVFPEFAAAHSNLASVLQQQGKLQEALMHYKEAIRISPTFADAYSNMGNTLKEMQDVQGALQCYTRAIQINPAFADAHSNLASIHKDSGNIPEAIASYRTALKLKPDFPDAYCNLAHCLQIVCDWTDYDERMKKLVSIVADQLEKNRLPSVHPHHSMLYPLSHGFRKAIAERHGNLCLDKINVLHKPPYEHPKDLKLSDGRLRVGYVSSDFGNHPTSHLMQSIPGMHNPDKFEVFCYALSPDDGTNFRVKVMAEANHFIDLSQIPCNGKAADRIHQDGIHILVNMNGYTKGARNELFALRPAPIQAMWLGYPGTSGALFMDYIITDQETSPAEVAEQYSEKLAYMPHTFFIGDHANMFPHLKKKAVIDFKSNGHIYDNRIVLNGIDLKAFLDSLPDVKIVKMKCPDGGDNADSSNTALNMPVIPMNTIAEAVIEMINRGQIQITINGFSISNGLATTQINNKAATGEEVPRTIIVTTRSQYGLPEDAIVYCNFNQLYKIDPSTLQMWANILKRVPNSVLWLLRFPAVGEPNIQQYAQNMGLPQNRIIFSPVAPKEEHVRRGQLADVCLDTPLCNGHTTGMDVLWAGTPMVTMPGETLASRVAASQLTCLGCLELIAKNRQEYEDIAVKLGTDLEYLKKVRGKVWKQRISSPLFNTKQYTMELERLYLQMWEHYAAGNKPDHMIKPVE
Put plainly: radiometric transfer assay on RBL2 peptide, three-parameter dose-response fit. The format is biochemical.

For series [2], the target named is T1, Δ1–312 hOGT. Put plainly: radiometric transfer assay on RBL2 peptide, Ki from IC50 by Cheng-Prusoff. The format is biochemical.
Series [3] has as its target T2, Δ1–352 DmOGT (Drosophila melanogaster, UniProt Q7KJA9).
T2 construct: gene sxc; N-terminally truncated construct starting at residue 353 in TPR 10 (part of TPRs plus catalytic domain); expressed in E. coli (ArcticExpress), purified as hOGT Δ1-312; wild type in kinetics, K872M in crystal
T2 sequence (Q7KJA9 353-1059): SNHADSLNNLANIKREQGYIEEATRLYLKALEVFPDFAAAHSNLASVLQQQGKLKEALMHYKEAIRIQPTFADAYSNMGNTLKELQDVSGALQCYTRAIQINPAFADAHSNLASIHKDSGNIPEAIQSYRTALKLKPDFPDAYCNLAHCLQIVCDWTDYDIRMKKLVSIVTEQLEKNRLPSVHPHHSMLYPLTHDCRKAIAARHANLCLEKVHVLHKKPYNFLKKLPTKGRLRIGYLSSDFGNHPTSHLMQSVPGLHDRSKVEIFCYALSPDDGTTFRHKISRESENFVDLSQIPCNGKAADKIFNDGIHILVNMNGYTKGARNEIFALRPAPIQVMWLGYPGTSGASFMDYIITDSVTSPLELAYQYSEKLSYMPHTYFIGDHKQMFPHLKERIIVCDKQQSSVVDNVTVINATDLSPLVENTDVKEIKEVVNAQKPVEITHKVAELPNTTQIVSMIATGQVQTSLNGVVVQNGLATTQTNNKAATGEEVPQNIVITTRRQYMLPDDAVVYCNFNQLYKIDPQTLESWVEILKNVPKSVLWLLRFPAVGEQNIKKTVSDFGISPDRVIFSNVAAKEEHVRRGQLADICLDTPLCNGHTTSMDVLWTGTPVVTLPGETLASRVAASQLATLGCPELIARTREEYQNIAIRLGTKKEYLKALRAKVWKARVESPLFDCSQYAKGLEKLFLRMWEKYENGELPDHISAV
Described as above. The format is biochemical.

Series [4] concerns the target T2, Δ1–352 DmOGT. Put plainly: radiometric transfer assay on RBL2 peptide, three-parameter dose-response fit. The format is biochemical.
Series [5] concerns the target T3, Δ1–352 DmOGT (Drosophila melanogaster, UniProt Q7KJA9, K872M).
T3 construct: gene sxc; N-terminally truncated construct starting at residue 353 in TPR 10 (part of TPRs plus catalytic domain); expressed in E. coli (ArcticExpress), purified as hOGT Δ1-312; wild type in kinetics, K872M in crystal
T3 sequence (Q7KJA9 353-1059 K872M): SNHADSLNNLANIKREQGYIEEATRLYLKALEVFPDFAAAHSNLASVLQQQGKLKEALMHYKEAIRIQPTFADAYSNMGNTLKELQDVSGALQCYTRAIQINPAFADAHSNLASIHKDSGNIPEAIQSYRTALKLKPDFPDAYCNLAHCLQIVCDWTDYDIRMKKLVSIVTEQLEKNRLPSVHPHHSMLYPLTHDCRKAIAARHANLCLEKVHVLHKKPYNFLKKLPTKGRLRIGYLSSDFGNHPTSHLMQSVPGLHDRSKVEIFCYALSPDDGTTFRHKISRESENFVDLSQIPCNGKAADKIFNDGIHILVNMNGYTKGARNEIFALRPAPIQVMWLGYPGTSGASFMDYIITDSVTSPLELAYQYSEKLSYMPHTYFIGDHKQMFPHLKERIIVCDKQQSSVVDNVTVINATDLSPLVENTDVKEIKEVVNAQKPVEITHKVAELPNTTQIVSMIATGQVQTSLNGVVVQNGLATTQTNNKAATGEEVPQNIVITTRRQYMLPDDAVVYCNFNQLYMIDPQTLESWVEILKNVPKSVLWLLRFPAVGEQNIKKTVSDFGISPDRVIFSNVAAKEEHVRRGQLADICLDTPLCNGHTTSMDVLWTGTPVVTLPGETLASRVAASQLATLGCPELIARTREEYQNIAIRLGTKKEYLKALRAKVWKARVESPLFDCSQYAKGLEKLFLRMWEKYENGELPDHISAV
Put plainly: X-ray crystallography (co-crystal, […] Å). The format is binding. Conditions: 3 mM UDP-5S-GlcNAc; pH 7.5 protein buffer; 21 °C.

Substrate in series [6]: CC(=O)N[C@H]1[C@@H](OP(=O)(O)OP(=O)(O)OC[C@H]2O[C@@H](n3ccc(=O)[nH]c3=O)[C@H](O)[C@@H]2O)O[C@H](CO)[C@@H](O)[C@@H]1O
Put plainly: radiometric transfer assay on RBL2 peptide, Michaelis-Menten fit. The format is biochemical, Homo sapiens. The note with it: 0.25 mM RBL2 peptide …, UDP-[3H]-GlcNAc tracer, pH 7.5.

Substrate in series [7]: CC(=O)N[C@H]1[C@@H](OP(=O)(O)OP(=O)(O)OC[C@H]2O[C@@H](n3ccc(=O)[nH]c3=O)[C@H](O)[C@@H]2O)O[C@H](CO)[C@@H](O)[C@@H]1O
The description is as above. The format is biochemical, Drosophila melanogaster. Conditions: 0.25 mM RBL2 peptide …, UDP-[3H]-GlcNAc tracer, pH 7.5.

For the molecule `CC(=O)N[C@@H]1[C@@H](O)[C@H](O)[C@@H](CO)S[C@@H]1OP(=O)(O)OP(=O)(O)OC[C@H]1O[C@@H](n2ccc(=O)[nH]c2=O)[C@H](O)[C@@H]1O` [UDP-5S-GlcNAc], the IC50 in series [1] came to 24.6 µM; in series [4], 68.3 µM. Moreover, the inhibition constant (Ki) in series [2] worked out at 13.6 µM; in series [3], 36.2 µM. Also, the “X-ray crystallography (co-crystal, 2.7 Å)” value in series [5] was “crystallized in complex with the inhibitor/substrate analogue UDP-5S-GlcNAc”.

B1: Δ1–312 hOGT (Homo sapiens) (protein)
chain: CPTHADSLNNLANIKREQGNIEEAVRLYRKALEVFPEFAAAHSNLASVLQQQGKLQEALMHYKEAIRISPTFADAYSNMGNTLKEMQDVQGALQCYTRAIQINPAFADAHSNLASIHKDSGNIPEAIASYRTALKLKPDFPDAYCNLAHCLQIVCDWTDYDERMKKLVSIVADQLEKNRLPSVHPHHSMLYPLSHGFRKAIAERHGNLCLDKINVLHKPPYEHPKDLKLSDGRLRVGYVSSDFGNHPTSHLMQSIPGMHNPDKFEVFCYALSPDDGTNFRVKVMAEANHFIDLSQIPCNGKAADRIHQDGIHILVNMNGYTKGARNELFALRPAPIQAMWLGYPGTSGALFMDYIITDQETSPAEVAEQYSEKLAYMPHTFFIGDHANMFPHLKKKAVIDFKSNGHIYDNRIVLNGIDLKAFLDSLPDVKIVKMKCPDGGDNADSSNTALNMPVIPMNTIAEAVIEMINRGQIQITINGFSISNGLATTQINNKAATGEEVPRTIIVTTRSQYGLPEDAIVYCNFNQLYKIDPSTLQMWANILKRVPNSVLWLLRFPAVGEPNIQQYAQNMGLPQNRIIFSPVAPKEEHVRRGQLADVCLDTPLCNGHTTGMDVLWAGTPMVTMPGETLASRVAASQLTCLGCLELIAKNRQEYEDIAVKLGTDLEYLKKVRGKVWKQRISSPLFNTKQYTMELERLYLQMWEHYAAGNKPDHMIKPVE
notes: N-terminally truncated, residues 1-312 removed (printed once as Δ1-313 beside the Ki); part of TPRs plus catalytic domain; recombinant
For the molecule B1, the Km in series [6] is 6.6 ± 0.3 µM.

B2: Δ1–352 DmOGT (Drosophila melanogaster) (protein)
chain: SNHADSLNNLANIKREQGYIEEATRLYLKALEVFPDFAAAHSNLASVLQQQGKLKEALMHYKEAIRIQPTFADAYSNMGNTLKELQDVSGALQCYTRAIQINPAFADAHSNLASIHKDSGNIPEAIQSYRTALKLKPDFPDAYCNLAHCLQIVCDWTDYDIRMKKLVSIVTEQLEKNRLPSVHPHHSMLYPLTHDCRKAIAARHANLCLEKVHVLHKKPYNFLKKLPTKGRLRIGYLSSDFGNHPTSHLMQSVPGLHDRSKVEIFCYALSPDDGTTFRHKISRESENFVDLSQIPCNGKAADKIFNDGIHILVNMNGYTKGARNEIFALRPAPIQVMWLGYPGTSGASFMDYIITDSVTSPLELAYQYSEKLSYMPHTYFIGDHKQMFPHLKERIIVCDKQQSSVVDNVTVINATDLSPLVENTDVKEIKEVVNAQKPVEITHKVAELPNTTQIVSMIATGQVQTSLNGVVVQNGLATTQTNNKAATGEEVPQNIVITTRRQYMLPDDAVVYCNFNQLYKIDPQTLESWVEILKNVPKSVLWLLRFPAVGEQNIKKTVSDFGISPDRVIFSNVAAKEEHVRRGQLADICLDTPLCNGHTTSMDVLWTGTPVVTLPGETLASRVAASQLATLGCPELIARTREEYQNIAIRLGTKKEYLKALRAKVWKARVESPLFDCSQYAKGLEKLFLRMWEKYENGELPDHISAV
notes: N-terminally truncated construct starting at residue 353 in TPR 10 (part of TPRs plus catalytic domain); expressed in E. coli (ArcticExpress), purified as hOGT Δ1-312; wild type in kinetics, K872M in crystal
For the molecule B2, the Michaelis constant (Km) in series [7] turned out to be 17.8 ± 0.7 µM.
